The record followed here is US5356921A, “Imidazolylphenol compounds, pharmaceutical compositions containing them, and processes for preparing such compounds and compositions” (Gruenenthal GmbH, priority 1992, dated 1994).

In one experiment the target is T1, thromboxane synthase (Homo sapiens, UniProt P24557).
T1 construct: human thrombocytes were isolated from platelet-rich plasma; endogenous in cells; host or cells: human thrombocytes (platelets), intact
T1 sequence (P24557 1-533): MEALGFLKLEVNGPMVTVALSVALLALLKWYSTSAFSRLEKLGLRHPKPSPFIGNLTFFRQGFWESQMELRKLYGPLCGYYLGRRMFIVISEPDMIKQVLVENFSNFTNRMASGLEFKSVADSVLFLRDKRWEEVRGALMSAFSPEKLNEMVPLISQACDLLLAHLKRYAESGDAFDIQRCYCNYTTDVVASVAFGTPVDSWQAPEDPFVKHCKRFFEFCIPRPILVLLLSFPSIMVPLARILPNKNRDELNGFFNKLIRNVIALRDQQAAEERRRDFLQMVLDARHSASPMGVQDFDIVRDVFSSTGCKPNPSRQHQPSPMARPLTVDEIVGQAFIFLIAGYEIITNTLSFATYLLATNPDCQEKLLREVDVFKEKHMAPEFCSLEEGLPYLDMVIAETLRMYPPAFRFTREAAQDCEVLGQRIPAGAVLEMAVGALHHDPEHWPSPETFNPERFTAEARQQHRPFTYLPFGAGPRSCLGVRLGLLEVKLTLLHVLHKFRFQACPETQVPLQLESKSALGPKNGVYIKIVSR
The experiment in a line: Inhibition of thromboxane synthase (human thrombocytes). Type of experiment: cell-based. The note with it: for IC50: human thrombocytes, arachidonic acid 3.5 μM, read-out: IC50-Value, inhibition of thromboxane synthase (TXB2 formation); for inhibitory action on thromboxane synthase: in words. The procedure:
After addition of prostacyclin, human thrombocytes were isolated from platelet-rich plasma and suspended in Tyrode-Hepes buffer of pH 7.4 at 2×10^8 cells/ml. One ml aliquots of cells were incubated either with a compound according to the invention (0.1 to 100 μM) or a solvent (ethanol and/or dimethyl sulfoxide) at 37° C. for 3 minutes and thereafter with radioactively labelled arachidonic acid (3.5 μM) for 5 minutes. The reaction was stopped and the metabolites of arachidonic acid were extracted by adding methanol, chloroform and formic acid. After evaporation of the chloroform-containing layer to dryness under nitrogen, the residue obtained was resuspended in 50 μl chloroform and analyzed by thin layer chromatography. The distribution of the radioactivity of the different metabolites of arachidonic acid was measured using a TLC linear analyzer.

Experiment [1] deals with T2, 5-lipoxygenase (Rattus norvegicus, UniProt P12527).
T2 construct: endogenous in cells; host or cells: RBL-1 cells (rat basophilic leukemia), intact
T2 sequence (P12527 1-673): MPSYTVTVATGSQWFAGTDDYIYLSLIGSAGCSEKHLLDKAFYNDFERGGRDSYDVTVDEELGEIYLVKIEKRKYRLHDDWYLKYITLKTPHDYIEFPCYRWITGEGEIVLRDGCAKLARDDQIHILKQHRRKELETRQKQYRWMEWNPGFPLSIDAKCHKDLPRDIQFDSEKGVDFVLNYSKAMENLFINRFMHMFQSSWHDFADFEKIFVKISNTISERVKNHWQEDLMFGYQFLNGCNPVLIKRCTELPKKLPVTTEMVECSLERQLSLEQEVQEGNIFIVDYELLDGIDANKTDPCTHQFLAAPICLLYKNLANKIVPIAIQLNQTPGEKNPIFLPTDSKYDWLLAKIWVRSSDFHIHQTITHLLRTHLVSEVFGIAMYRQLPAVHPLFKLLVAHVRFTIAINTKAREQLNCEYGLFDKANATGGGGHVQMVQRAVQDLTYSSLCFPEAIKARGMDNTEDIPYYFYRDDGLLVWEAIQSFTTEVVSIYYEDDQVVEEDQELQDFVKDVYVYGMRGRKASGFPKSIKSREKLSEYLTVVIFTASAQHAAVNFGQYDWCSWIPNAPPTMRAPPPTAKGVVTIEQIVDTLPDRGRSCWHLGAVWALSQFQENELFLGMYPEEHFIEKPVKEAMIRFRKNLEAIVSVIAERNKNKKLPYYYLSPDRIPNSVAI
The experiment in a line: Inhibition of cell-free 5-lipoxygenase from RBL-1-cells. Type of experiment: biochemical. The note with it: 10,000×g supernatant of RBL cells; polarographic; arachidonic acid 75 μM. The procedure:
Cell-free 5-lipoxygenase was polarographically measured from 10,000×gsupernatant of homogenized rat basophilic leucemia cells [M. Haurand and L. Flohe in Biol. Chem. Hoppe-Seyler 369, 133-142 (1988)]. After preincubation of the 10,000×g supernatant with arachidonic acid (75 μM), ATP (adenosine triphosphate; 4 μM), reduced glutathione (4 mM), and either a compound according to the invention (0.1 to 100 μM) or a solvent (ethanol and/or dimethyl sulfoxide) at 35° C. for 5 minutes, the lipoxygenase reaction was initiated by addition of calcium chloride (3 mM) and recorded simultaneously.
The activity of 5-lipoxygenase was determined from the difference of the pO2 -decrease before and after addition of calcium chloride. The evaluation included the initial rate of the reaction after the lag-phase as well as the duration of the lag-phase. In a concentration range of from 5 to 10 μM the test substances induced lag-phases of 15 seconds.

The subject of experiment [2] is 5-lipoxygenase. The experiment in a line: 5-lipoxygenase inhibition in rat blood after oral administration (ex vivo iLTB4-formation). The settings on record: male Wistar rats, 21.5 mg/kg oral, one hour after administration, A 23 187 15 μg/ml. The procedure: The bioavailability of the compounds of formula I as 5-lipoxygenase inhibitors was characterized by means of an ex vivo biochemical assessment method described by Tateson et al. in Brit. J. Pharmacol. 94, 528 (1988). A compound of formula I was orally administered to male rats (Wistar strain) in a dose of 21.5 mg/kg. One hour after administration the rats after lethal CO2 -narcosis were bled by heart puncture with added heparin as an anticoagulant. Aliquots of the whole blood were incubated at 37° C. for 30 minutes in a water bath with calcium ionophore A 23 187 at an end concentration of 15 μg/ml. At the end of the incubation the samples were centrifuged, and the concentration of immunoreactive LTB4 (iLTB4) in aliquots of […] percent inhibition of ex vivo iLTB4 -formation in whole blood of rats treated with a compound according to the invention, rats orally treated with an appropriate vehicle solution were included in all experiments, and aliquots of their blood were run in parallel and were processed in the same way as described. The average iLTB4 -content of the plasma of the vehicle treated rats served as the 100% value. The activity in percent of the ex vivo iLTB4 -formation after oral administration of a compound according to the invention was calculated by dividing the average value of the iLTB4 -content in ng iLTB4 /ml of the group treated with a compound according to the invention by the average value of the iLTB4 -contents in ng iLTB4 /ml of the vehicle treated group and subsequent multiplication by the factor 100. The respective inhibition in percent was calculated by subtracting the activity in percent from 100.

Consider `NC(=O)N(O)Cc1ccc(Oc2ccc(-n3ccnc3)cc2)cc1` [Example 1, N-hydroxy-N-[4-[4-(1H-imidazol-1-yl)phenoxy]phenylmethyl]urea], for which the figures for the concentration for half-maximal inhibition (IC50) at thromboxane synthase and against 5-lipoxygenase [1] were 2.8 µM and 7 µM, respectively. Moreover, the “inhibitory action on thromboxane synthase” value on thromboxane synthase is “same inhibitory potency as the hydrochloride of the imidazolylethoxybenzoic acid UK 37 248”. The “Inhibition of ex vivo iLTB4-formation in whole blood” value in the experiment with 5-lipoxygenase [2] (21.5 mg/kg) is recorded as 89%.
Regarding `CC(=O)N(O)Cc1ccc(Oc2ccc(-n3ccnc3)cc2)cc1` [Example 3, N-hydroxy-N-[4-[4-(1H-imidazol-1-yl)phenoxy]phenylmethyl]acetamide], the concentration for half-maximal inhibition (IC50) on thromboxane synthase was 2.9 µM; against 5-lipoxygenase [1], 3 µM. Further, the “inhibitory action on thromboxane synthase” value on thromboxane synthase was “same inhibitory potency as the hydrochloride of the imidazolylethoxybenzoic acid UK 37 248”. The “Inhibition of ex vivo iLTB4-formation in whole blood” value with 5-lipoxygenase [2] is recorded as 91%.

Usually IC50 stands for the point on the concentration scale where inhibition reaches its midpoint.
